Measured values as given in ChEMBL document CHEMBL1144205, “Screening of herbal constituents for aromatase inhibitory activity” (Bioorg Med Chem, 2008).

Experiments:
Aromatase [1] = target: T1, Aromatase (Homo sapiens, UniProt P11511); experiment: Inhibition of human aromatase expressed in CHO cells; assay type: cell-based
T1 sequence (P11511 whole entry): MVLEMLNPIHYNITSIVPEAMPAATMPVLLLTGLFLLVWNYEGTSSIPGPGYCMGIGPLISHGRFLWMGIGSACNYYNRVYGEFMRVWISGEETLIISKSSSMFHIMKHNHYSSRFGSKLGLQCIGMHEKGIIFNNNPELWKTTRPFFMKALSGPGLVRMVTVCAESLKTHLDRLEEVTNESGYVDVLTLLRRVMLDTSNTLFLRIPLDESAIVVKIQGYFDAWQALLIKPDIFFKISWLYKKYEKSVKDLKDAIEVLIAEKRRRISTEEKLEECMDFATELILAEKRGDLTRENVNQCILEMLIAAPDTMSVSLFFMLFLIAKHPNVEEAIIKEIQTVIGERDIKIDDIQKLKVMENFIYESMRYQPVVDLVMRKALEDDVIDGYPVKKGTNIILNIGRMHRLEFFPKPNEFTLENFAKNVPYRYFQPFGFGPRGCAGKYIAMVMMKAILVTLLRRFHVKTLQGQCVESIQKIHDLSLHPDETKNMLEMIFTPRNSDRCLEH

Aromatase [2] = target: T1, Aromatase; experiment: Inhibition of human aromatase by fluorometric assay

| SMILES | Ki (Aromatase [1]) [µM] | IC50 (Aromatase [2]) [µM] |
| --- | --- | --- |
| O=c1c(-c2ccc(O)cc2)coc2cc(O)ccc12 [DAIDZEIN] | 100 | – |
| O=c1c(O)c(-c2ccccc2)oc2cc(O)cc(O)c12 [GALANGIN] | 100 | – |
| O=c1c(-c2ccc(O)cc2)coc2cc(O)cc(O)c12 [GENISTEIN] | 100 | – |
| O=c1c(O)c(-c2ccc(O)c(O)c2)oc2c(O)c(O)cc(O)c12 [GOSSYPETIN] | – | 11 |
| O=C1C[C@@H](c2ccc(O)cc2)Oc2cc(O)ccc21 [LIQUIRTIGENIN] | – | 0.34 |
| O=c1c(O)c(-c2cc(O)c(O)c(O)c2)oc2cc(O)cc(O)c12 [MYRICETIN] | – | 10 |
